Laboratory results taken from paper PMC3828658 (Organic & biomolecular chemistry, 2013).
Entries after “also recorded” stand apart in the source; their conditions may differ.

Columns and labels:
WT-MEF = assay: Growth inhibition in non-cancerous immortalized cell line, SRB assay; assay type: cell-based; conditions: 100 μM, 72 hours, preliminary
LDH-A [1] = biological target: T1, LDH-A (Homo sapiens, UniProt P00338); assay: Enzyme kinetics, NADH-competition, mixed-model inhibition fit; assay type: biochemical
HeLa cells [2] = assay: Lactate production inhibition in HeLa cells quantified by GC-MS; assay type: cell-based, human; conditions: 8 hours; for effect on lactate production: 50-200 μM
HeLa cells [3] = assay: Anticancer potency, 72 hour Sulforhodamine B assay; assay type: cell-based, human; conditions: for cell death: HeLa cells, 100 μM, 72 hours; for IC50: Homo sapiens, HeLa, 72 h, read-out: Anticancer potency, 72 hour IC50
Stability [4] = assay type: in vitro ADME, human; conditions: 30 min at 37 °C, 100 μM
HeLa cells [5] = assay: Intracellular concentration / cellular uptake by LC-MS; assay type: cell-based, human; conditions: 500 μM, 30 minutes
Stability [6] = assay type: in vitro ADME; conditions: RPMI 1640 growth media, 30 min at 37 °C, 100 μM
[7] = cited from earlier work
LDH-A [8] = conditions: read-out: LDH-A IC50 reported in the literature; cited from earlier work
LDH-A [9] = biological target: T1, LDH-A; assay: Enzyme inhibition of purified human LDH-A; assay type: biochemical

SMILES	cell death (WT-MEF)	Ki (LDH-A [1])	cell death (HeLa cells [3])	IC50 (HeLa cells [3])	cleavage in HeLa cell lysate (Stability [4])	stability / cleavage in culture media (Stability [6])	cellular uptake in HeLa cells (HeLa cells [5]; LC-MS)	effect on lactate production (HeLa cells [2])	also measured
O=C(O)c1cc2c(C(F)(F)F)cc(-c3ccccc3)cc2n1O [Compound 1, 1-Hydroxy-6-phenyl-4-(trifluoromethyl)-1H-indol-2-carboxylic acid]	less than 20%	10.8 µM	100%	43.8 µM					lactate production relative to vehicle (HeLa cells [2]; 100 μM): 70%
COC(=O)c1cc2c(C(F)(F)F)cc(-c3ccccc3)cc2n1O [Compound 2, methyl 1-hydroxy-6-phenyl-4-(trifluoromethyl)-1H-indol-2-carboxylate]	approximately 70%		100%	33.4 µM	not appreciably cleaved	not appreciably cleaved			concentration in HeLa cell lysate solution relative to free acid 1 (HeLa cells [5]; LC-MS): ~ 4 fold; cleavage of methyl ester following cellular incubation (HeLa cells [5]; HeLa cells): No cleavage; lactate production relative to vehicle (HeLa cells [2]; 200 μM): ~ 20%
Cc1nc2ccc(NC(=O)CCNC(=O)CCCc3ccc(CC(C(=O)O)C(=O)O)cc3)cc2s1 [Compound 3, 2-(4-(4-((3-((2-methylbenzo[d]thiazol-6-yl)amino)-3-oxopropyl)amino)-4-oxobutyl)benzyl)malonic acid, reference compound]		0.23 µM		> 500 µM			could not be detected in lysate	did not show any effect	activity in cell-based assays (literature) [7]: inactive; IC50 (LDH-A [8]): 0.5 µM; IC50 (LDH-A [9]): 1 ± 0.2 µM
COC(=O)C(Cc1ccc(CCCC(=O)NCCC(=O)Nc2ccc3nc(C)sc3c2)cc1)C(=O)OC [Compound 4, dimethyl 2-(4-(4-((3-((2-methylbenzo[d]thiazol-6-yl)amino)-3-oxopropyl)amino)-4-oxobutyl)benzyl)malonate, reference compound]				75.4 µM	substantially cleaved to compound 5	stable; also recorded: not appreciably cleaved	efficient cell uptake	significant reduction	monohydrolysis to monoester 5 in HeLa cell lysate (Stability [4]): ~ 50%; LDH-A (IC50) [NADH] (LDH-A [9]; NADH-competition assay: 1440 μM sodium pyruvate, 40 μM NADH, mean ± SD): lack of inhibitory potency
COC(=O)C(Cc1ccc(CCCC(=O)NCCC(=O)Nc2ccc3nc(C)sc3c2)cc1)C(=O)O (stereo not drawn) [Compound 5, 3-Methoxy-2-(4-(4-((3-((2-methylbenzo[d]thiazol-6-yl)amino)-3-oxopropyl)amino)-4-oxobutyl)benzyl)-3-oxopropanoic acid]							no direct cell uptake	failed to result in any substantial reduction	cell death in HeLa cells (HeLa cells [3]; 72 hour treatment, up to 200 μM): No substantial cell death
